These results are taken from patent publication US11529341B2, “Bicyclic compounds as inhibitors of PD1/PD-L1 interaction/activation” (JUBILANT PRODEL LLC, priority 2018, dated 2022).

pIC50: −log10 of the molar value.

For the assay, the target named is T1, PD-1/PD-L1 interaction (Homo sapiens, UniProt Q9NZQ7).
T1 construct: Tag1 (undisclosed kit tag); purchased CisBio 63ADK000CPAPEG
T1 sequence (Q9NZQ7 19-238 limits assumed): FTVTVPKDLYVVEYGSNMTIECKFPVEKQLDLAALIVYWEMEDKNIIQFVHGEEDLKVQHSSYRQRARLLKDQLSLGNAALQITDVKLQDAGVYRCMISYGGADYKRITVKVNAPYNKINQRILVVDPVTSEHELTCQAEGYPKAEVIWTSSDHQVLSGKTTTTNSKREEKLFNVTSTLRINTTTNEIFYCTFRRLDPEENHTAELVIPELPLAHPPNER
The assay is described as follows: PD-1/PD-L1 Homogenous Time-Resolved Fluorescence (HTRF) binding assay (CisBio kit). Particulars: Biochemical PD1/PD-L1 inhibition. In short, it runs like this: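 Tagged PD-L1 and PD-1 proteins preincubated with compound 15 min, then anti-Tag1-Eu3+ donor and anti-Tag2-XL665 acceptor added, 1 h at room temperature. Emission read at 665 and 620 nm; signal expressed as HTRF ratio (665/620)×10^4, loss of signal indicating blocked binding.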
On the technique in general: TR-FRET usually uses a lanthanide donor and a delayed reading to cut background.
For `CC(=O)NCCNCc1c(OC[C@H]2C[C@H]2C(=O)O)cc(OCc2cccc(-c3ccccc3)c2C)c2c1CCC2` [Compound 83, (1R,2S)-2-(((4-(((2-acetamidoethyl)amino)methyl)-7-((2-methyl-[1,1′-biphenyl]-3-yl)methoxy)-2,3-dihydro-1H-inden-5-yl)oxy)methyl)cyclopropane-1-carboxylic acid], the pIC50 was 6.30 to 7.00. As for `COc1cc(OCc2cccc(-c3ccc4c(c3)OCCO4)c2C)c2c(c1CN1CCCC[C@H]1C(=O)O)CCC2` [Compound 84, (S)-1-((7-((3-(2,3-dihydrobenzo[b][1,4]dioxin-6-yl)-2-methylbenzyl)oxy)-5-methoxy-2,3-dihydro-1H-inden-4-yl)methyl)piperidine-2-carboxylic acid], the figure is more than 7.00; as for `COc1cc(OCc2cccc(-c3ccc4c(c3)OCCO4)c2C)c2c(c1CN1C[C@H](O)C[C@H]1C(=O)O)CCC2` [Compound 85, (2S,4R)-1-((7-((3-(2,3-dihydrobenzo[b][1,4]dioxin-6-yl)-2-methylbenzyl)oxy)-5-methoxy-2,3-dihydro-1H-inden-4-yl)methyl)-4-hydroxypyrrolidine-2-carboxylic acid], 6.30 to 7.00; as for `CC(=O)NCCNCc1c(OCc2cccc(C#N)c2)cc(OCc2cccc(-c3ccccc3C)c2C)c2c1CCC2` [Compound 86, N-(2-(((5-((3-cyanobenzyl)oxy)-7-((2,2′-dimethyl-[1,1′-biphenyl]-3-yl)methoxy)-2,3-dihydro-1H-inden-4-yl)methyl)amino)ethyl)acetamide], 6.30 to 7.00. `CC(=O)NCCNCc1c(OCc2cccc(C#N)c2)cc(OCc2cccc(-c3ccc(F)cc3)c2C)c2c1CCC2` [Compound 87, N-(2-(((5-((3-cyanobenzyl)oxy)-7-((4′-fluoro-2-methyl-[1,1′-biphenyl]-3-yl)methoxy)-2,3-dihydro-1H-inden-4-yl)methyl)amino)ethyl)acetamide] had a pIC50 of 6.30 to 7.00. As for `Cc1c(COc2cc(OCc3cccc(C(N)=O)c3)c(CN3CCCC[C@H]3C(=O)O)c3c2CCC3)cccc1-c1ccccc1` [Compound 88, (S)-1-((5-((3-carbamoylbenzyl)oxy)-7-((2-methyl-[1,1′-biphenyl]-3-yl)methoxy)-2,3-dihydro-1H-inden-4-yl)methyl)piperidine-2-carboxylic acid], the figure is 6.30 to 7.00. Next, `Cc1c(COc2cc(OCc3cccc(C#N)c3)c(CN)c3c2CCC3)cccc1-c1ccccc1` [Compound 89, 3-(((4-(aminomethyl)-7-((2-methyl-[1,1′-biphenyl]-3-yl)methoxy)-2,3-dihydro-1H-inden-5-yl)oxy)methyl)benzonitrile]: more than 7.00. As for `CC(=O)NCc1c(OCc2cccc(C#N)c2)cc(OCc2cccc(-c3ccccc3)c2C)c2c1CCC2` [Compound 90, N-((5-((3-cyanobenzyl)oxy)-7-((2-methyl-[1,1′-biphenyl]-3-yl)methoxy)-2,3-dihydro-1H-inden-4-yl)methyl)acetamide], the figure is less than 6.30; as for `CC(=O)NCCCCCC(=O)NCc1c(OCc2cccc(C#N)c2)cc(OCc2cccc(-c3ccccc3)c2C)c2c1CCC2` [Compound 91, 6-acetamido-N-((5-((3-cyanobenzyl)oxy)-7-((2-methyl-[1,1′-biphenyl]-3-yl)methoxy)-2,3-dihydro-1H-inden-4-yl)methyl)hexanamide], less than 6.30. `Cc1c(COc2cc(OCc3cccc(C#N)c3)c(CN(C)C)c3c2CCC3)cccc1-c1ccccc1` [Compound 92, 3-(((4-((dimethylamino)methyl)-7-((2-methyl-[1,1′-biphenyl]-3-yl)methoxy)-2,3-dihydro-1H-inden-5-yl)oxy)methyl)benzonitrile]: the pIC50 is more than 7.00.

`CC(=O)NCCNCc1c(OCc2cncc(C(=O)O)c2)cc(OCc2cccc(-c3ccccc3)c2C)c2c1CCC2` [Compound 93, 5-(((4-(((2-acetamidoethyl)amino)methyl)-7-((2-methyl-[1,1′-biphenyl]-3-yl)methoxy)-2,3-dihydro-1H-inden-5-yl)oxy)methyl)nicotinic acid] gave a negative logarithm of the IC50 (pIC50) of more than 7.00.

One may read the pIC50 as −log10 of the IC50, conventionally taken in molar units. The low end stands for a high IC50, the high end for a low IC50.
